From patent US20090018118A1, “HETEROCYCLIC COMPOUNDS” (priority 2005, published 2009)
Counter-ions that a name gives are not always drawn. Like-named read-outs stand apart in the source and are kept apart here.

Experiments:
[1] = test system: cholesterol biosynthesis in HepG2 cells; experiment: Metabolic labeling of HepG2 cells with [3H]acetate; radio-HPLC sterol profile (inhibition of cholesterol biosynthesis); type: cell-based, human; details: HepG2; for activity at 10 µM: Homo sapiens, 24 h, Table I, sterol level normalized to normal medium (1.00), mean of 4 experiments
Experimental: In accordance with the aims of the invention, the effect of the novel compounds on inhibition of cholesterol biosynthesis is assessed. An ex vivo method of metabolic labeling of immortal human hepatocytes is employed. The radioactively labeled early precursor of cholesterol [3H]acetate is added to cells with or without addition of an active new compound.
An ex vivo method of metabolic labeling of immortal human hepatocytes is employed. The radioactively labeled early precursor of cholesterol [3H]acetate is added to cells with or without addition of an active compound.
Cell culture incubation with potential inhibitors of cholesterol biosynthesis and statins Human hepatoma cell line (HepG2-ATCC No. HB-8065) is split in the recommended ratio (1:2-3) into 75 cm^2 cell flasks using two flasks per experimental condition. Cells are incubated at 37° C. with 5% CO2 in Dulbeco's modified Eagle medium (DMEM high (Sigma)) containing 5% calf serum (Sigma) and 1% L-glutamine (Sigma). After 24-hours-culturing in the growth medium, the medium is replaced with the one supplemented with 10 μM concentration of a LK compound, potential inhibitor of cholesterol biosynthesis. 10 μM solution of atorvastatin, inhibitor of HMG-CoA reductase, serves as a positive control.
After 24 hours the growth medium is changed and [^3H]acetate (NEN™ Life Science Products) added in a concentration of 40 μCi per ml of the medium (400 μCi per flask). After 4 hours cells are harvested using 2 ml of trypsin (Sigma) and the cell pellet is resuspended in 1 ml of distilled water. Cells are homogenized using the freeze and thaw method. From cell homogenate sterols are extracted and protein concentration determined using the Bio-Rad reagent.
Homogenates are transferred into 4 ml glass vial and sterols are extracted in 3 ml of extraction solution (75% n-heptane: 25% isopropanol (vol./vol.)) with ergosterol as an internal standard. For better extraction 100 μl of 0.3M NaH2PO4 (pH=1.0) is added. Closed vials are vigorously shaken (1800 rpm) for 2 hours. After extraction procedure vials are centrifuged (2000 g, 10 min) and the organic phase is transferred to fresh conical glass tubes. Extraction procedure is repeated using 1 ml of extraction solution for 15 min. Organic phases are pooled. Primary extracts are dried in vacuum centrifuge, redissolved in 3 ml of n-heptane, and incubated for 10 min at room temperature with mild shaking. After centrifugation (10 min, 2000 g) extracts are transferred into fresh glass tubes and stored in dark and cold.
The organic phase is dried, reconstituted in mobile phase for reversed phase HPLC separation and loaded onto a-HPLC column, Prism-RPN, 5 μm, 250×4,6 mm running in 100% acetonitrile at 1.00 ml/min at 40° C. temperature. Scintillation liquid is added after UV detection at 30 ml/h, at room temperature, to evaluate tritium labeled sterols on a radio detector.
Sterols are determined by comparing the eluted peaks with runs of commercial standards of lanosterol, ergosterol, desmosterol, zymosterol, 7-dehydrocholesterol, lathosterol and cholesterol or laboratory standards (FF-MAS-4,4-Dimethylcholesta-8(9),14,24-triene-3β-ol- and T-MAS-4,4-Dimethylcholesta8(9),24,diene-3,6-ol, Laboratory of Reproductive Biology, The Juliane Marie Center for Children, Women and Reproduction, University Hospital of Copenhagen, DK-2100 Copenhagen, Denmark). Results were normalized on ergosterol quantity and protein concentration. Results are presented as a mean from 4 separated experiments.
The influence of a 10 μM solution of novel LK-substances on cholesterol biosynthesis in the assay on HepG2 cells is presented in Table I. Compounds are arranged according to the building blocks, three of them are 2-pyridineethanols, 2-pyridineethylpiperazines and pyridinemethylpiperazines.
Normal medium pertains to cell cultures without a compound of the invention. Its sterol levels were used for normalization. 10 μM solution of atorvastatin serves as a positive control.

[2] = Table II (arranged by sterol profile), 10 μM compound, normalized to normal medium (1.00)

melting point | SMILES | FF-MAS accumulation (in words) ([1]; 10 μM) | lanosterol level (in words) ([1]; 10 μM, relative to normal medium) | activity at 10 µM ([1]; 10 μM compound, read-out: FF-MAS) | activity at 10 µM ([1]; 10 μM compound, read-out: cholesterol) | activity at 10 µM ([1]; 10 μM compound, read-out: desmosterol) | activity at 10 µM ([1]; 10 μM compound, read-out: lanosterol) | activity at 10 µM ([1]; 10 μM compound, read-out: lathosterol) | activity at 10 µM ([1]; 10 μM compound, read-out: zymosterol+7-dehydrocholesterol) | FF-MAS [1, 2] | cholesterol [1, 2] | desmosterol [1, 2] | lanosterol [1, 2] | lathosterol [1, 2] | zymosterol+7-dehydrocholesterol [1, 2]
220 to 223 °C | OC(CN1CCN(Cc2ccc(F)cc2)CC1)c1cccnc1 (stereo not shown) (as salt: hydrobromid) [LK-9148, 2-(4-(4-Fluorobenzyl)piperazine-1-yl)-1-(pyridine-3-yl)ethanol trihydrobromide] | – | – | – | – | – | – | – | – | – | – | – | – | – | –
126 to 129 °C | OC(CN1CCN(CCc2ccccc2)CC1)c1ccc2ccccc2c1 (stereo not shown) [LK-9111B, 1-(Naphthalen-2-yl)-2-(4-phenethylpiperazin-1-yl)ethanol] | notably accumulate FF-MAS | indicates lanosterol accumulation | 901% | 0% | 0% | 197% | 46% | 171% | 9.01 | 0.00 | 0.00 | 1.97 | 0.46 | 1.71
